# According to ChEMBL document CHEMBL1151685, “Structure-activity relationship of antibacterial chalcones” (2008):
# What was measured:
# Assay type in all cases: functional
# Staphylococcus aureus = test: Antibacterial activity against Staphylococcus aureus ATCC 25923 after 24 hrs by microdilution broth method; details: ATCC 25923, 24 h
# Escherichia coli = test: Antibacterial activity against Escherichia coli ATCC 25922 after 24 hrs by microdilution broth method; details: ATCC 25922, 24 h
# Pseudomonas aeruginosa = test: Antibacterial activity against Pseudomonas aeruginosa ATCC 27853 after 24 hrs by microdilution broth method; details: ATCC 27853, 24 h
# Bacillus cereus = test: Antibacterial activity against Bacillus cereus ATCC 11778 after 24 hrs by microdilution broth method; details: ATCC 11778, 24 h
SMILES,MBC (Staphylococcus aureus) [µg/mL],MIC (Staphylococcus aureus) [µg/mL],MBC (Escherichia coli) [µg/mL],MIC (Escherichia coli) [µg/mL],MBC (Pseudomonas aeruginosa) [µg/mL],MIC (Pseudomonas aeruginosa) [µg/mL],MBC (Bacillus cereus) [µg/mL],MIC (Bacillus cereus) [µg/mL]
COc1ccccc1/C=C/C(=O)c1cc(OC)c(OC)cc1OC,1000,1000,2000,2000,2000,2000,250,250
CC(C)=CCC/C(C)=C\Cc1c(O)ccc(C(=O)/C=C/c2ccc(O)c(CC=C(C)C)c2)c1O,31.2,31.2,2000,1000,2000,1000,15.6,15.6
COc1cc(C(=O)CCc2ccccc2)c(OC)c(CC=C(C)C)c1OC,> 2000,2000,2000,2000,2000,2000,2000,2000
COc1ccc(C(=O)/C=C/c2ccccc2O)cc1OC,2000,1000,2000,1000,> 2000,1000,1000,1000
"COc1ccc(C(=O)/C=C/c2ccccc2)cc1OC [3',4'-DIMETHOXYCHALCONE]",2000,1000,1000,2000,2000,1000,1000,1000
"COc1ccc(/C=C/C(=O)c2ccc(OC)cc2)cc1 [4,4'-DIMETHOXYCHALCONE]",> 2000,> 2000,> 2000,> 2000,2000,2000,> 2000,> 2000
CC1(C)C=Cc2cc(C(=O)/C=C/c3ccc(O)cc3)c(O)cc2O1 [4-HYDROXYISOLONCHOCARPIN],> 2000,1000,> 2000,2000,> 2000,2000,> 2000,1000
CC(C)=CCOc1ccc(C(=O)/C=C/c2ccccc2)c(O)c1 [CORDOIN],> 2000,2000,> 2000,2000,2000,2000,2000,2000
COc1ccc(C(=O)/C=C/c2ccccc2)c(O)c1CC=C(C)C [DERRICIN],> 2000,2000,2000,2000,2000,2000,2000,2000
CC(C)=CCc1c(O)ccc(C(=O)/C=C/c2ccc(O)cc2)c1O [ISOBAVACHALCONE],31.2,31.2,1000,1000,2000,1000,31.2,31.2
CC(C)=CCc1c(O)ccc(C(=O)/C=C/c2ccccc2)c1O [ISOCORDOIN],2000,2000,2000,2000,1000,2000,2000,2000
O=C(/C=C/c1ccc(O)cc1)c1ccc(O)cc1O [ISOLIQUIRITIGENIN],62.5,62.5,2000,2000,2000,2000,62.5,62.5
CC1(C)C=Cc2cc(C(=O)/C=C/c3ccccc3)c(O)cc2O1 [ISOLONCHOCARPIN],> 2000,2000,> 2000,2000,> 2000,2000,> 2000,1000
CC1(C)C=Cc2c(ccc(C(=O)/C=C/c3ccccc3)c2O)O1 [LONCHOCARPIN],2000,2000,1000,1000,2000,2000,2000,2000
O=C(CCc1ccc(O)cc1)c1c(O)cc(O)cc1O [PHLORETIN],250,250,1000,> 2000,2000,2000,250,250
CN(C)[C@@H]1C(O)=C(C(N)=O)C(=O)[C@@]2(O)C(O)=C3C(=O)c4c(O)cccc4[C@@](C)(O)[C@H]3C[C@@H]12 [TETRACYCLINE],,1,,2,,32,,0.25
